Measured values reported in ChEMBL document CHEMBL6096738, “Optimization of Single Relaxin B-Chain Peptide Leads to the Identification of R2R01, a Potent, Long-Acting RXFP1 Agonist for Cardiovascular and Renal Diseases” (J Med Chem, 2025).
Starred links: 1 amine or outer side, 2 acyl side, 3 side chain; linkers in the order of their positions; H or OH if unused. Non-standard residues stand in square brackets, D forms with d. Residues, ends and D or L forms follow the SMILES beside them. Groups on a side chain read outwards from the residue. *: point of attachment. PEG12 = NCCOCCOCCOCCOCCOCCOCCOCCOCCOCCOCCOCCOCCC(=O)O; γGlu = O=C(O)[C@H](CCC(=O)[*:2])N[*:1]; Stearoyl = CCCCCCCCCCCCCCCCCC(=O)*; Palmitoyl = CCCCCCCCCCCCCCCC(=O)*; Nle = CCCC[C@H](N)C(=O)O; AEEA = NCCOCCOCC(=O)O; Aib = CC(C)(N)C(=O)O

Assays:
[1] = Induction of immune response in human CD4+ T cells assessed as increase in auto reactive T cells at 3 uM preincubated with monocyte-derived immature dendritic cells followed by T cell addition and further stimulated on day 7 and 14 with autologous dendritic cells and measured after 5 days post last stimulation by IFNgamma-Elispot analysis; type: toxicity, cell-based; conditions: 120 h
[2] = biological target: T1, Relaxin receptor 1 (Homo sapiens) (UniProt Q9HBX9); experiment: Agonist activity at human RXFP1 expressed in 2%HSA treated human OVCAR-5 cells assessed as intracellular cAMP accumulation by measuring maximal efficacy incubated for 30 mins with 2% HSA pretreated compound by HTRF assay relative to control; type: functional, cell-based; conditions: filed as agonist
T1 sequence (whole entry): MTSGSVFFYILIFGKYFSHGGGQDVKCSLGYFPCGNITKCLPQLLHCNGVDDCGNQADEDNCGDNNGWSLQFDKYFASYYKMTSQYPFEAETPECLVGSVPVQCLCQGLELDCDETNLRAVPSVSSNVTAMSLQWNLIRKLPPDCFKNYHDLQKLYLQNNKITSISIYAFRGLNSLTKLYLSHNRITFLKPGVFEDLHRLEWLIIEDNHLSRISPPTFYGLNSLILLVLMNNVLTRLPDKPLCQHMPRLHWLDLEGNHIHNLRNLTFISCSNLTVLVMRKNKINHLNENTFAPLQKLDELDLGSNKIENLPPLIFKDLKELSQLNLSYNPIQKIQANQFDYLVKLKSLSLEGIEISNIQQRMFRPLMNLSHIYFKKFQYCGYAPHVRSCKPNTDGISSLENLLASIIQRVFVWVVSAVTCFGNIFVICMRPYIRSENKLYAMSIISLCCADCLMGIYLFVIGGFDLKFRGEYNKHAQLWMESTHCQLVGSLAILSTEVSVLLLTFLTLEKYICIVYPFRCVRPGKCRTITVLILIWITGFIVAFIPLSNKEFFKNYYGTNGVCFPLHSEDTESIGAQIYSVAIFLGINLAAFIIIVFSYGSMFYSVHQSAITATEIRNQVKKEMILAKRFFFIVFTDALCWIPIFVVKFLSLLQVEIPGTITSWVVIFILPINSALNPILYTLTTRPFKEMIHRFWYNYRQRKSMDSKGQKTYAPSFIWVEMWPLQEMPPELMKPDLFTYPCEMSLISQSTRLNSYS

[3] = Drug metabolism in male Sprague-Dawley rat assessed as fatty acid chain oxidation mediated M+16 metabolite formation by measuring metabolite to parent compound AUC ratio at 3 mg/kg, sc measured after 198 hrs by LC-HRMS analysis; type: ADME, organism-based; conditions: in vivo
[4] = Drug metabolism in male Beagle dog assessed as fatty acid chain oxidation mediated M+16 metabolite formation by measuring metabolite to parent compound AUC ratio at 1 mg/kg, iv measured after 198 hrs by LC-HRMS analysis; type: ADME, organism-based, Canis lupus familiaris; conditions: in vivo
[5] = Drug metabolism in female Gottingen pig assessed as fatty acid chain oxidation mediated M+16 metabolite formation by measuring metabolite to parent compound AUC ratio at 1 mg/kg, iv measured after 198 hrs by LC-HRMS analysis; type: ADME, organism-based, Sus scrofa; conditions: in vivo
[6] = biological target: T1, Relaxin receptor 1 (Homo sapiens); experiment: Agonist activity at human RXFP1 expressed in human OVCAR-5 cells assessed as intracellular cAMP accumulation by measuring maximal efficacy incubated for 30 mins by HTRF assay relative to control; type: functional, cell-based; conditions: filed as agonist
[7] = Half-life in male Sprague-Dawley rat at 1 mg/kg, iv measured after 198 hrs by LC-HRMS analysis; type: ADME, organism-based; conditions: in vivo
[8] = Induction of mast cell degranulation in human LAD2 cells assessed as beta-hexosaminidase release by measuring maximal efficacy of 4-methylumbelliferyl N-acetyl-beta-D-glucosaminide hydrolysis at 33 uM incubated for 30 mins by plate reader analysis relative to control; type: toxicity, cell-based; conditions: probe 4-methylumbelliferyl N-acetyl-beta-D-glucosaminide
[9] = biological target: T2, Relaxin receptor 1 (Homo sapiens, UniProt Q9HBX9); experiment: Agonist activity at human RXFP1 expressed in 2%HSA treated human OVCAR-5 cells assessed as intracellular cAMP accumulation incubated for 30 mins with 2% HSA pretreated compound by HTRF assay; type: functional, cell-based
T2 sequence (Q9HBX9 whole entry): T1 sequence (whole entry)

[10] = Induction of mast cell degranulation in human LAD2 cells assessed as beta-hexosaminidase release by measuring 4-methylumbelliferyl N-acetyl-beta-D-glucosaminide hydrolysis incubated for 30 mins by plate reader analysis; type: toxicity, cell-based; conditions: probe 4-methylumbelliferyl N-acetyl-beta-D-glucosaminide
[11] = Half-life in male Beagle dog at 1 mg/kg, iv measured after 198 hrs by LC-HRMS analysis; type: ADME, organism-based, Canis lupus familiaris; conditions: in vivo
[12] = biological target: T2, Relaxin receptor 1; experiment: Agonist activity at human RXFP1 expressed in human OVCAR-5 cells assessed as intracellular cAMP accumulation incubated for 30 mins by HTRF assay; type: functional, cell-based
[13] = Half-life in female Gottingen pig at 1 mg/kg, iv measured after 198 hrs by LC-HRMS analysis; type: ADME, organism-based, Sus scrofa; conditions: in vivo

Emax [2] [%] | Ratio AUC [3] | Ratio AUC [4] | Ratio AUC [5] | Emax [6] [%] | half-life [7] [h] | EC50 [9] [nM] | half-life [11] [h] | EC50 [12] [nM] | half-life [13] [h] | Structure (SMILES) | Activity [1] | Emax at 0.5 h, 33 µM [8] [%] | EC50 at 30 min [10] [nM]
 |  |  |  |  |  |  |  |  |  | CCCC[C@H](NC(=O)CNC(=O)[C@H](CCC(=O)O)NC(=O)C(C)(C)NC(=O)C(C)(C)NC(=O)[C@@H](NC(=O)[C@H](CCCCNC(C)=O)NC(=O)[C@H](C)NC(=O)[C@H](CCCNC(=N)N)NC(=O)[C@@H](NC(=O)[C@H](CCCCN)NC(=O)[C@H](CCC(=O)O)NC(=O)[C@H](CCCNC(=N)N)NC(=O)CNC(=O)[C@H](CCC(=O)O)NC(=O)[C@H](CC(C)C)NC(C)=O)C(C)C)[C@@H](C)CC)C(=O)N[C@@H](CO)C(=O)N[C@H](C(=O)N[C@@H](Cc1c[nH]c2ccccc12)C(=O)N[C@@H](CO)C(=O)NC(C)(C)C(=O)N[C@@H](CCCNC(=N)N)C(=O)N[C@@H](CCCCN)C(=O)N[C@@H](CCCCNC(C)=O)C(N)=O)[C@@H](C)O (Ac-LEGREKVRAK(Ac)I[Aib][Aib]EG[Nle]STWS[Aib]RKK(Ac)-NH2) | Non-toxic |  | 
96 | 0.025 | 0.99 | 0.7 | 80 | 5.7 | 87 | 4.4 | 1 | 12.9 | CCCCCCCCCCCCCCCC(=O)N[C@@H](CCC(=O)N[C@@H](CCC(=O)N[C@@H](CCC(=O)NCCOCCOCC(=O)NCCOCCOCC(=O)NCCOCCOCC(=O)NCCCC[C@H](NC(=O)[C@H](CCCCNC(C)=O)NC(=O)[C@H](CCCCN)NC(=O)[C@H](CCCNC(=N)N)NC(=O)C(C)(C)NC(=O)[C@H](CO)NC(=O)[C@H](Cc1c[nH]c2ccccc12)NC(=O)[C@@H](NC(=O)[C@H](CO)NC(=O)[C@H](CCCC)NC(=O)CNC(=O)[C@H](CCC(=O)O)NC(=O)C(C)(C)NC(=O)C(C)(C)NC(=O)[C@@H](NC(=O)[C@H](CCCCNC(C)=O)NC(=O)[C@H](C)NC(=O)[C@H](CCCNC(=N)N)NC(=O)[C@@H](NC(=O)[C@H](CCCCN)NC(=O)[C@H](CCC(=O)O)NC(=O)[C@H](CCCNC(=N)N)NC(=O)CNC(=O)[C@H](CCC(=O)O)NC(=O)[C@H](CC(C)C)NC(C)=O)C(C)C)[C@@H](C)CC)[C@@H](C)O)C(N)=O)C(=O)O)C(=O)O)C(=O)O (Ac-LEGREKVRAK(Ac)I[Aib][Aib]EG[Nle]STWS[Aib]RKK(Ac)K([AEEA-AEEA-AEEA-γGlu-γGlu-γGlu-Palmitoyl])-NH2) |  | 67.2 | 3900
84 |  |  |  | 95 | 4.3 | 9 |  | 0.6 |  | CCCCCCCCCCCCCCCCCC(=O)N[C@@H](CCC(=O)N[C@@H](CCC(=O)N[C@@H](CCC(=O)NCCCC[C@H](NC(=O)CCOCCOCCOCCOCCOCCOCCOCCOCCOCCOCCOCCOCCNC(=O)[C@H](CCCCNC(C)=O)NC(=O)[C@H](CCCCN)NC(=O)[C@H](CCCNC(=N)N)NC(=O)C(C)(C)NC(=O)[C@H](CO)NC(=O)[C@H](Cc1c[nH]c2ccccc12)NC(=O)[C@@H](NC(=O)[C@H](CO)NC(=O)[C@H](CCCC)NC(=O)CNC(=O)[C@H](CCC(=O)O)NC(=O)C(C)(C)NC(=O)C(C)(C)NC(=O)[C@@H](NC(=O)[C@H](CCCCNC(C)=O)NC(=O)[C@H](C)NC(=O)[C@H](CCCNC(=N)N)NC(=O)[C@@H](NC(=O)[C@H](CCCCN)NC(=O)[C@H](CCC(=O)O)NC(=O)[C@H](CCCNC(=N)N)NC(=O)CNC(=O)[C@H](CCC(=O)O)NC(=O)[C@H](CC(C)C)NC(C)=O)C(C)C)[C@@H](C)CC)[C@@H](C)O)C(N)=O)C(=O)O)C(=O)O)C(=O)O (Ac-LEGREKVRAK(Ac)I[Aib][Aib]EG[Nle]STWS[Aib]RKK(Ac)[PEG12]K([γGlu-γGlu-γGlu-Stearoyl])-NH2) | Non-toxic |  | 
